Experimental data reported in patent publication US11299461B2 (priority 2018, dated 2022).

Target: LF 263-C catalytic domain (anthrax lethal factor) (Bacillus anthracis, UniProt P15917)
Test: biochemical

LF 263-C catalytic domain (anthrax lethal factor), sequence (P15917 296-809 limits assumed): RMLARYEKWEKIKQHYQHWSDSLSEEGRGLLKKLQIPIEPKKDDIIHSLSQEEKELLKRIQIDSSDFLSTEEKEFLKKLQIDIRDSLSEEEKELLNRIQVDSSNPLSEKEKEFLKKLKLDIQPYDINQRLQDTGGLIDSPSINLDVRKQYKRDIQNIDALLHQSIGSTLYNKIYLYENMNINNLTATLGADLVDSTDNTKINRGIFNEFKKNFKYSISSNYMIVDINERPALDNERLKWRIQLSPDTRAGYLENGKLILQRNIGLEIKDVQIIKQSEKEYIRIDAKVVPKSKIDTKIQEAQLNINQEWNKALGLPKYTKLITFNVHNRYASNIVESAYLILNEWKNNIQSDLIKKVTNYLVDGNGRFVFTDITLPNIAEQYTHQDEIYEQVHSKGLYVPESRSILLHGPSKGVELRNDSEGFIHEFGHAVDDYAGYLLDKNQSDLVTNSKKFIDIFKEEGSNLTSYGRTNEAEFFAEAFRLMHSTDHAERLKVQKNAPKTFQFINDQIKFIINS

Row | SMILES | Ki [nM]
1 | Cc1ccc([C@@H](CO)NCCCC[C@@H](Nc2cc(C)c(F)c(C)c2)C(=O)NO)nc1 [Compound 1, (R)-2-((4-fluoro-3,5-dimethylphenyl)amino)-N-hydroxy-6-(((S)-2-hydroxy-1-(5-methylpyridin-2-yl)ethyl)amino)hexanamide] | 0.17
2 | Cc1cc(N[C@H](CCCCN[C@H](CO)c2ccc(F)cn2)C(=O)NO)cc(C)c1F [Compound 2, (R)-2-((4-fluoro-3,5-dimethylphenyl)amino)-6-(((S)-1-(5-fluoropyridin-2-yl)-2-hydroxyethyl)amino)-N-hydroxyhexanamide] | 0.14
3 | Cc1cc(N[C@H](CCCCN[C@@H](c2ccc(F)cn2)C(C)C)C(=O)NO)cc(C)c1F [Compound 3, (R)-2-((4-fluoro-3,5-dimethylphenyl)amino)-6-(((R)-1-(5-fluoropyridin-2-yl)-2-methylpropyl)amino)-N-hydroxyhexanamide] | 0.2
4 | Cc1cc(N[C@H](CCCCN[C@@H](c2ccc(Cl)cn2)C(C)C)C(=O)NO)cc(C)c1F [Compound 4, (R)-6-(((R)-1-(5-chloropyridin-2-yl)-2-methylpropyl)amino)-2-((4-fluoro-3,5-dimethylphenyl)amino)-N-hydroxyhexanamide] | 0.45
5 | CC[C@@H](NCCCC[C@@H](Nc1cc(C)c(F)c(C)c1)C(=O)NO)c1ncc(F)cc1F [Compound 5, (R)-6-(((R)-1-(3,5-difluoropyridin-2-yl)propyl)amino)-2-((4-fluoro-3,5-dimethylphenyl)amino)-N-hydroxyhexanamide] | 0.39
6 | Cc1cc(N[C@H](CCCCN[C@@H](c2ncc(F)cc2F)C(C)C)C(=O)NO)cc(C)c1F [Compound 6, (R)-6-(((R)-1-(3,5-difluoropyridin-2-yl)-2-methylpropyl)amino)-2-((4-fluoro-3,5-dimethylphenyl)amino)-N-hydroxyhexanamide] | 0.28
7 | Cc1cc(N[C@H](CCCCN[C@H](C)c2ccc(Cl)cn2)C(=O)NO)cc(C)c1F [Compound 7, (R)-6-(((R)-1-(5-chloropyridin-2-yl)ethyl)amino)-2-((4-fluoro-3,5-dimethylphenyl)amino)-N-hydroxyhexanamide] | 0.35
8 | CC[C@@H](NCCCC[C@@H](Nc1cc(C)c(F)c(C)c1)C(=O)NO)c1ccc(F)cn1 [Compound 8, (R)-2-((4-fluoro-3,5-dimethylphenyl)amino)-6-(((R)-1-(5-fluoropyridin-2-yl)propyl)amino)-N-hydroxyhexanamide] | 0.57
9 | Cc1cc(C[C@H](CCCCNCc2ccccn2)C(=O)NO)cc(C)c1F [Compound 9, (S)-2-(4-fluoro-3,5-dimethylbenzyl)-N-hydroxy-6-((pyridin-2-ylmethyl)amino)hexanamide] | 1
10 | Cc1cc(C[C@H](CCCCN[C@H](C)c2ccc(F)cn2)C(=O)NO)cc(C)c1F [Compound 10, (S)-2-(4-fluoro-3,5-dimethylbenzyl)-6-(((R)-1-(5-fluoropyridin-2-yl)ethyl)amino)-N-hydroxyhexanamide] | 0.15
11 | Cc1ccc([C@@H](C)NCCCC[C@@H](Cc2cc(C)c(F)c(C)c2)C(=O)NO)nc1 [Compound 11, (S)-2-(4-fluoro-3,5-dimethylbenzyl)-N-hydroxy-6-(((R)-1-(5-methylpyridin-2-yl)ethyl)amino)hexanamide] | 0.08
12 | Cc1cc(C[C@H](CCCCN[C@H](CO)c2ccc(F)cn2)C(=O)NO)cc(C)c1F [Compound 12, (S)-2-(4-fluoro-3,5-dimethylbenzyl)-6-(((S)-1-(5-fluoropyridin-2-yl)-2-hydroxyethyl)amino)-N-hydroxyhexanamide] | 0.08
13 | Cc1ccc([C@@H](CO)NCCCC[C@@H](Cc2cc(C)c(F)c(C)c2)C(=O)NO)nc1 [Compound 13, (S)-2-(4-fluoro-3,5-dimethylbenzyl)-N-hydroxy-6-(((S)-2-hydroxy-1-(5-methylpyridin-2-yl)ethyl)amino)hexanamide] | 0.07
14 | Cc1cc(C[C@H](CCCCN[C@H](C)c2ccc(C(F)(F)F)cn2)C(=O)NO)cc(C)c1F [Compound 14, (S)-2-(4-fluoro-3,5-dimethylbenzyl)-N-hydroxy-6-(((R)-1-(5-(trifluoromethyl)pyridin-2-yl)ethyl)amino)hexanamide] | 1.3
15 | CCN(CCCC[C@@H](Cc1cc(C)c(F)c(C)c1)C(=O)NO)[C@H](C)c1ccc(C(F)(F)F)cn1 [Compound 15, (S)-6-(ethyl((R)-1-(5-(trifluoromethyl)pyridin-2-yl)ethyl)amino)-2-(4-fluoro-3,5-dimethylbenzyl)-N-hydroxyhexanamide] | 3.6
16 | COc1ccc([C@@H](C)NCCCC[C@@H](Cc2cc(C)c(F)c(C)c2)C(=O)NO)nc1 [Compound 16, (S)-2-(4-fluoro-3,5-dimethylbenzyl)-N-hydroxy-6-(((R)-1-(5-methoxypyridin-2-yl)ethyl)amino)hexanamide] | 0.31
17 | CCN(CCCC[C@@H](Cc1cc(C)c(F)c(C)c1)C(=O)NO)[C@H](C)c1ccc(OC)cn1 [Compound 17, (S)-6-(ethyl((R)-1-(5-methoxypyridin-2-yl)ethyl)amino)-2-(4-fluoro-3,5-dimethylbenzyl)-N-hydroxyhexanamide] | 4.5
18 | Cc1cc(C[C@H](CCCCN(C)Cc2ccc(F)cn2)C(=O)NO)cc(C)c1F [Compound 18, (S)-2-(4-fluoro-3,5-dimethylbenzyl)-6-(((5-fluoropyridin-2-yl)methyl)(methyl)amino)-N-hydroxyhexanamide] | 1.6
19 | COc1ccc(CN(C)CCCC[C@@H](Cc2cc(C)c(F)c(C)c2)C(=O)NO)nc1 [Compound 19, (S)-2-(4-fluoro-3,5-dimethylbenzyl)-N-hydroxy-6-(((5-methoxypyridin-2-yl)methyl)(methyl)amino)hexanamide] | 1.4
20 | Cc1cc(C[C@H](CCCCNC(C)(C)c2ccc(F)cn2)C(=O)NO)cc(C)c1F [Compound 20, (S)-2-(4-fluoro-3,5-dimethylbenzyl)-6-((2-(5-fluoropyridin-2-yl)propan-2-yl)amino)-N-hydroxyhexanamide] | 0.19
21 | Cc1cc(C[C@H](CCCCN[C@@H](c2ccc(F)cn2)C(C)C)C(=O)NO)cc(C)c1F [Compound 21, (S)-2-(4-fluoro-3,5-dimethylbenzyl)-6-(((R)-1-(5-fluoropyridin-2-yl)-2-methylpropyl)amino)-N-hydroxyhexanamide] | 0.11
22 | Cc1cc(C[C@H](CCCCN[C@@H](c2ccc(Cl)cn2)C(C)C)C(=O)NO)cc(C)c1F [Compound 22, (S)-6-(((R)-1-(5-chloropyridin-2-yl)-2-methylpropyl)amino)-2-(4-fluoro-3,5-dimethylbenzyl)-N-hydroxyhexanamide] | 0.17
23 | Cc1cc(C[C@H](CCCCN[C@@H](c2ncc(F)cc2F)C(C)C)C(=O)NO)cc(C)c1F [Compound 23, (S)-6-(((R)-1-(3,5-difluoropyridin-2-yl)-2-methylpropyl)amino)-2-(4-fluoro-3,5-dimethylbenzyl)-N-hydroxyhexanamide] | 0.25
24 | Cc1cc(C[C@H](CCCCN[C@@H](C)c2ccc(F)cn2)C(=O)NO)cc(C)c1F [Compound 24, (S)-2-(4-fluoro-3,5-dimethylbenzyl)-6-(((S)-1-(5-fluoropyridin-2-yl)ethyl)amino)-N-hydroxyhexanamide] | 0.44
25 | CC[C@@H](NCCCC[C@@H](Cc1cc(C)c(F)c(C)c1)C(=O)NO)c1ncc(F)cc1F [Compound 25, (S)-6-(((R)-1-(3,5-difluoropyridin-2-yl)propyl)amino)-2-(4-fluoro-3,5-dimethylbenzyl)-N-hydroxyhexanamide] | 0.12
